Entries after “also recorded” stand apart in the source; their conditions may differ. Starred links: 1 amine or outer side, 2 acyl side, 3 side chain; linkers in the order of their positions; H or OH if unused. Positions of bridges follow the written chain, without caps; N, C: chain ends. Residues, ends and D or L forms follow the SMILES beside them. Chains are numbered I, II in the order given. No end group written: not given here. X1 = O=C(CCN[*:2])[*:1]; βAla = NCCC(=O)O
Legend:
[1] = system: NMDA receptor; experiment: Whole cell patch recording of isolated NMDA EPSC, CA1 pyramidal neuron in hippocampal slices; conditions: perfusion in presence of NBQX 5 μM and picrotoxin 50 μM, clamped at +40 mV, CN2097 2 μM, APV 50 μM
Text: APV is a selective NMDA receptor antagonist.
(§1) CN 2097 is effective in synaptic plasticity and is able to lower the threshold for LTP induction, as shown FIG. 2. […] Without being bound by any particular theory, it is believed that CN 2097 acts through its ability to specifically interfere with NR2B activity and expression to change the sliding threshold for synaptic plasticity, altering the ratio of NR2A:NR2B. Similarly, antagonism of NR2B has been reported to lower the threshold for synaptic plasticity, such that LTP can be induced in response to a normally impotent stimulation with NMDA agonist. […] The cell voltage was clamped at +40 mV and synaptic responses were recorded.

[2] = target: T1, PDZ1-PDZ2 domains of PSD-95 (Homo sapiens, UniProt P78352); experiment: PDZ-domain array of 96 His-tagged PDZ domains; format: binding
T1 construct: His
Text: (§2) Using Fmoc-based protocols, a series of peptide ligands were synthesized that complement the PDZ-binding domain of PSD-95 with the criteria of being membrane permeable, resistant to protease activity and biologically active. The peptide KNYKKTEV, which codes for the CRIPT PDZ-3 binding motif, was cyclized between the valine (V) and threonine (T) residues via beta-alanine linkage and either myristylated (CN2180) or linked to a poly-arginine tail (CN2097; FIG. 1) to enhance its diffusion and uptake capacity by neurons in intact tissues. Binding specificity of CN2180 was tested against a PDZ-domain array consisting of 96 distinct His-tagged PDZ domains purified and spotted on a gridded nylon membrane. […] CN 2097 acts as competitive ligand for this binding site and as such is able to disrupt the normal binding of NR2B receptors to the PSD. Also, it is believed that CN2097 disrupts NR2B downstream signaling by displacing signaling effectors attached directly or indirectly to the NR2B/PSD-95 signaling complex including CaMKII. […] Without being bound by any particular theory, this effect is believed due to the disruption of apoptotic and necrotic cell signaling pathways that propagate the cell death signal.

[3] = system: PDZ domains of other MAGUKS, MUPP1, S-SCAM, Shank and spinophilin; experiment: PDZ-domain array of 96 His-tagged PDZ domains; format: binding
Text: as §2

[4] = target: T2, PDZ3 domain of PSD-95 (Homo sapiens, UniProt P78352); experiment: PDZ-domain array of 96 His-tagged PDZ domains; format: binding
T2 construct: His
Text: as §2

[5] = Human plasma half-life; format: in vitro ADME
[6] = system: Schaffer Collateral-CA1 synapse; experiment: Sub-threshold LTP induction at Schaffer Collateral-CA1 synapse (fEPSP); parameters: species or system adult Wistar rat; conditions: for LTP induction with sub-threshold protocol: CN2097 2 μM, low intensity 1 second 100 Hz HFS that normally fails to induce LTP
Text: It would normally induce no increase in baseline fEPSP responses (lower line).
as §1

[7] = system: NR2B NMDAR subunit; experiment: Electrophysiological and biochemical preliminary studies
Text: as §2

[8] = system: mTOR, S6 and AKT expression pathways; experiment: Western blots of in vivo injected retinas, SH-SY5Y neuroblastomas and primary cerebellar granule neurons; format: cell-based
Text: Additionally, upregulation of CaMKII, an NMDAR-PSD-95 associated protein, is believed to be associated with synaptic plasticity. Biochemical analyses using western blots of in vivo injected retinas, cultured SH-SY5Y neuroblastomas and primary cultured mouse cerebellar granule neurons (CGN) was undertaken. Left and right eyes were given in vivo injections of phosphate buffered saline (PBS), NMDA, NMDA with CN 2097 and NMDA with CN5135, the retinas were then removed and lysed. CGNs were stimulated by a paradigm designed to mimic synaptic stimulation ([…] in ACSF) and SH-SY5Y cells were activated by nerve growth factor (NGF 50 ng/ml). […] Additionally CN2097 increased the expression CREB, which is also neuroprotective. Also observed were increases in levels of PSD-95.
CN2097 (2 μM) was tested after injection into eyes/retinas (lower left panel) applied to cell cultures for 5-30 minutes concurrently with either a synaptic stimulation and nerve growth factor (NGF) 50 ng/ml. CN2097 saw increased ERK, AKT1/2, p-S6K, p-S6, p-ERK, p-p38, p-CREB and PSD-95. Additionally, CN2097 (2 μM) inhibited p-JNK. CN2097S (szeto sequence used instead of Pol-Arginine) and CN5135 (2, 10 and […]), a structural analogue of CN2097 with disruptive alanine substitutions at the 0 and −2 ring positions (binding domain) were used a negative controls whilst tat-NR2B9c (TAT, 2 μM) was used as a positive control.

[9] = system: retina and hippocampus; experiment: Excitotoxic studies with lethal doses of NMDA
Text: as §2

[10] = system: WT mouse hippocampal slice; experiment: LTP in WT mouse hippocampal slice, one sub-threshold HFS (fEPSP slope)
Description: FIG. 6 presents data from a WT mouse adult hippocampal slice. An arrow indicates the time point at which one sub-threshold High Frequency Stimuli (HFS, 100 pulse in 1 second every 10 ms, 100 Hz) was applied. The white box indicates the treatment with CN2097 2 μM.
(§3) Ube3a deficient (“AS”) mice were developed previously (Jiang, Y. H. et al. Mutation of the Angelman ubiquitin ligase in mice causes increased cytoplasmic p53 and deficits of contextual learning and long-term potentiation. Neuron 21, 799-811 (1998)), were obtained through the Jackson Laboratory. Mice were bred on a 129S7 background. To obtain heterozygous mice lacking the Ube3a gene maternally (m−/p+), we crossed a heterozygous female mouse (m−/p+) with a wild-type male mouse (m+/p+). Wild type (WT) littermates (m+/p+) were used as controls.

[11] = system: AS mouse (Ube3am−/p+) hippocampal slices; experiment: LTP in AS mouse (Ube3am-/p+) hippocampal slice, three trains of HFS; conditions: CN2097 2 μM superfused 20-50 minutes, three trains of HFS 10 seconds apart at 40 minutes
Description: Then CN2097 2 μM was superfused from 20-50 minutes. The arrow at 40 minutes indicates three trains of High Frequency Stimuli 10 seconds apart. The HFS is 100 pulses in 1 second with an interpulse interval of 10 ms, i.e. 100 Hz. […] In AS mice this stimulation is normally unable to induce LTP (FIG. 8.). At 90-100 minutes the averaged response was 159.8+/−1.1%, n=7.
as §3

[12] = system: retinal ganglion cells; experiment: NMDA-induced ganglion cell death in the rat retina, intravitreal injection; format: in vivo
Description: Rat eyes were given an intravitreal injection containing 20 nmol of NMDA with 3 nmol CN2097 being co-administered or injected following NMDA insult at 1, 2 or 6 hrs. Retinal ganglion cell survival was assessed by counting fluorogold-labeled cells In an defined area (between 2 and 3 mm) from the center of the optic nerve head of each retina and compared with untreated (control) retinas.
Tests included 20 nmol NMDA vs 1.2 nmol CN2097/20 nmol NMDA.

[13] = system: PI3K and AKT signaling; experiment: ACPD (mGluR1 agonist) signaling with CN2097 added; format: cell-based; conditions: CN2097 added to ACPD
Description: ACPD, an agonist of mGluR1, when CN2097 is added leads to an enhancement of PI3K and AKT signaling.

[14] = Uptake into the brain post i.v.; format: in vivo; conditions: hippocampus, cerebellum, periventricular nucleus of the hypothalmus, deep cerebellar nuclei, sub-cortex, retina
Text: In addition uptake into the deep cerebellar nuclei, in the sub-cortex and the retina are noted.

T1 sequence (P78352 65-246 limits assumed): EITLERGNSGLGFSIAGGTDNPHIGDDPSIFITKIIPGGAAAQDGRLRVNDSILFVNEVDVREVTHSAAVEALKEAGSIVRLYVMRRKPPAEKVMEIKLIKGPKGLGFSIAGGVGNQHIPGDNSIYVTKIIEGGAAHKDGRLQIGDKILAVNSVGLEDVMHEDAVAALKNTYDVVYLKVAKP
T2 sequence (P78352 313-393 limits assumed): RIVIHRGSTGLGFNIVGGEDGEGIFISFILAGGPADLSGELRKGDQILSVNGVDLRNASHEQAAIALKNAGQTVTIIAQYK

For `N[C@@H](CCCP(=O)(O)O)C(=O)O` [APV, reference compound], the “effect on pharmacologically isolated NMDA EPSC” value [1] was “abolished the EPSC”.
With “CN2180: peptide KNYKKTEV cyclized between valine and threonine via beta-alanine linkage, myristylated (bridge (positions not given here) via βAla; also: cyclized between valine and threonine via beta-alanine linkage, myristylated, site not given here)” the “binding specificity to PDZ1-PDZ2 domains of PSD-95” value [2] was “high specificity”, the “binding to PDZ domains of other MAGUKS and other PDZ-containing proteins” value [3] was “did not bind” and the “binding to PDZ3 domain of PSD-95” value [4] was “moderate binding”.
With `CC(C)[C@H](NC(=O)[C@@H]1CCC(=O)NCCC(=O)NCCCC[C@H](NC(=O)[C@H](CCCCN)NC(=O)[C@H](Cc2ccc(O)cc2)NC(=O)[C@H](CC(N)=O)NC(=O)[C@H](CCCCN)NC(=O)[C@@H](N)CSSC[C@H](N)C(=O)N[C@@H](CCCNC(=N)N)C(=O)N[C@@H](CCCNC(=N)N)C(=O)N[C@@H](CCCNC(=N)N)C(=O)N[C@@H](CCCNC(=N)N)C(=O)N[C@@H](CCCNC(=N)N)C(=O)N[C@@H](CCCNC(=N)N)C(=O)N[C@@H](CCCNC(=N)N)C(N)=O)C(=O)N[C@@H]([C@@H](C)O)C(=O)N1)C(=O)O` [CN2097] (I: H-CKNYKKTEV-OH / II: H-CRRRRRRR-NH2; disulfide I:1-II:1; linker I:6-I:8 via X1) the half-life [5] was about 48 min, the “duration of induced LTP” value ([6]; 2 μM CN 2097, 1 second 100 Hz HFS) was “over 60 minutes” and the “LTP induction with sub-threshold protocol” value [6] was “results in LTP induction”. The “LTP induction with sub-threshold protocol” value ([6]; listed as CN 2097) was “induced a significant LTP”, the “specificity toward the NR2B NMDAR subunit” value [7] was “demonstrates specificity” and the “effect on pharmacologically isolated NMDA EPSC” value [1] was “lack of effect”. The “effect on pharmacologically isolated NMDA EPSC” value ([1]; listed as CN 2097) was “does not act as an antagonist”, the “expression of CREB” value [8] was “increased” and the “levels of PSD-95” value [8] was “increases”. The p-JNK ([8]; 2 μM) was “inhibiting; also recorded: inhibited”, the “total protein expression and phosphorylation state of pro-survival signaling proteins (CamKII, ERK, AKT1/2, p-S6K, p-S6, p-ERK, p-p38, p-CREB, PSD-95)” value ([8]; 2 μM, 5-30 minutes, with synaptic stimulation or NGF 50 ng/ml, or injected retinas) was “increases in both total protein expression and phosphorylation state; also recorded: increased” and the “neuroprotection against lethal doses of NMDA” value [9] was “neuroprotective”. For the same compound, the “LTP, % of baseline fEPSP slope” value ([10]; 2 μM treatment combined with one sub-threshold HFS (HFS1, 100 Hz)) was 187.2+/−1.034%, the “effect of compound alone upon baseline responses” value ([10]; CN2097 2 μM, between 20 and 40 minutes, before HFS) was “no significant observed effect” and the “LTP, averaged response at 90-100 minutes” value [11] was 159.8+/−1.1%. For the same compound, the “NMDA-induced TUNEL-labeling in the retina” value ([12]; 20 nmol NMDA vs 1.2 nmol CN2097/20 nmol NMDA) was “blocked”, the “ganglion cell death with post-treatment” value ([12]; 20 nmol NMDA, 3 nmol CN2097 co-administered or injected 1, 2 or 6 hrs after NMDA) was “neuroprotective effects” and the “NMDA-induced poly(ADP-ribosyl)ation-immunoreactivity (PAR-IR)” value ([12]; matched paired retinas, 20 nmol NMDA) was “dose dependent attenuation”. For the same compound, the “NMDA-induced ganglion cell loss, fluorogold retrograde labeling” value ([12]; viewed 14 days post insult) was “provided protection”, the “NMDA-induced loss of plasma membrane selectivity (LPMS; necrosis)” value ([12]; vs time matched NMDA-treated retina) was “blocked” and the “PI3K and AKT signaling with ACPD” value [13] was “enhancement”. The “uptake into the brain” value [14] was “uptake into the brain has also been noted”.

From patent US8673857B2, “Long term potentiation with cyclic-GluR6 analogs” (Brown University, priority 2009, dated 2014)
